Test results as given in US20220105150A1, “AMPHIPATHIC ALPHA-HELICAL ANTIMICROBIAL PEPTIDES TREAT INFECTIONS BY GRAM-NEGATIVE PATHOGENS” (priority 2019, published 2022).
In brackets after ≈: the same amount, converted by molar mass. Where two headings read alike, the source gives them in different places.

Legend:
[1] = test system: Acinetobacter baumannii isolates resistant to classical antibiotics; type: cell-based
From the text: Thus, shortening the number of carbon atoms between the side-chain amino group and the α-carbon atom from four (Lys) to one (diaminopropionic acid) had very little effect on antibacterial activity (Table 2). We also determined the antibacterial activity of our five AMPs against 20 additional Acinetobacter baumannii isolates from four continents, 12 different countries and 17 different cities that were resistant to 18 different antibiotics. […] Thus, it is very clear that changing the type of positively-charged residue on the polar face of these AMPs had very little effect on the antibacterial activities.

A. baumannii strain 649 = type: cell-based, Acinetobacter baumannii; conditions: MH medium, no serum
Description: Hemoglobin release was determined spectrophotometrically at 570 nm.
Because only unbound AMP is available to interact with the therapeutic target, the extent of binding between AMPs and serum proteins can have significant effects on efficacy of these drugs. […] This assay estimates the in vivo bioavailability of our AMPs. […] An increase in MIC in the presence of serum is attributed to inhibition of antimicrobial activity due to binding to serum proteins.

[2] = test system: Acinetobacter baumannii strains resistant to Polymyxin B and Colistin; conditions: Mueller-Hinton medium, 37° C., 24 h
From the text: (§1) The coupling procedure used 5 equivalents of Fmoc-D-amino acid or Fmoc-L-amino acid and HCTU (O-(1H-6-chlorobenzotriazole-1-yl)-1,1,3,3-tetramethyluronium hexafluorophosphate) and 6-Cl-HOBt (1-hydroxy-6-chloro-benztriazole) at 4.5 equivalents in DMF (Fisher Scientific, Denver, Colo.) and N-diisopropylethylamine (DIPEA) 10 equivalents (Oakwood Products, Inc., Estill, S.C.) in N-methyl-2-pyrrolidinone (NMP) (Fisher Scientific, Denver, Colo.) with the first and second couplings at room temperature for 30 min each. The deprotection procedure (removal of Fmoc protecting group) was carried out by treatment of the resin with 0.1 M HOBt (1-hydroxybenzotriazole) in DMF with 20% piperidine for 30 min. […] The resin was removed by filtration and peptide was precipitated with ice-cooled ethyl ether on ice for 15 min. Ether was decanted, the peptide was washed twice with ether and redissolved in acetonitrile/water (1:1, with 0.2% TFA) and the solution lyophilized to obtain the crude peptide. • Analytical and Preparative Purification by Reversed-Phase Chromatography: Analytical RP-HPLC: Column, Luna C18 (2), 250×4.6 mm I.D., 5 μm particle size, 100 Å pore size from Phenomenex (Torrance, Calif.). Run conditions: linear AB gradient (1% acetonitrile/min, starting from 2% acetonitrile) at a flow-rate of 1 ml/min, where eluent A is 0.2% aq. TFA and eluent B is 0.18% TFA in acetonitrile; temperature, 30° C. Preparative RP-HPLC: Peptides were dissolved in 0.2% aq. TFA containing 2% acetonitrile to a final concentration of 10 mg/ml. Following filtration through a 0.45 μm Millipore filter and subsequently through a 0.22 μm filter, the peptide solutions were loaded onto the column via multiple 20-ml injections into a 20-ml injection loop at a flow-rate of 10 ml/min. Column, Luna C18 (2), 250×30 mm I.D., 5 um particle size, 100 Å pore size from Phenomenex. Run conditions: 2% acetonitrile/min gradient up to an acetonitrile concentration 10% below that required to elute the peptide during analytical RP-HPLC, then shallow gradient elution (0.05% or 0.1% acetonitrile/min depending on the complexity of impurities near the product of interest on the analytical run of the crude peptide) at a flow-rate of 10 ml/min (same eluents as shown above for analytical RP-HPLC); at room temperature. • Temperature Profiling of Peptides on Reversed-phase HPLC to Measure Dimerization and Oligomerization: Purified peptides were analyzed on an Agilent 1200 series liquid chromatograph for temperature profiling using a Zorbax 300 SB-C8 column (150 mm×2.1 mm I.D.; 5 μm particle size, 300 Å pore size) from Agilent Technologies. […] Temperature profiling was carried out on peptide mixtures run at each temperature in 2° C. increments from 5° C. to 41° C. and 10° C. increments from 5° C. to 75° C. Twenty minutes was allowed between runs for temperature equilibration. • Characterization of Helical Structure: The mean residue molar ellipticities of peptides were determined by circular dichroism (CD) spectroscopy, using a Jasco J-815 spectropolarimeter (Jasco Inc. Easton, Md., USA) at 5° C. under KP buffer (50 mM NaH2PO4/Na2HPO4/100 mM KCl, pH 7.0) as well as in the presence of an α-helix inducing solvent, 2,2,2-trifluoroethanol, TFE, (50 mM NaH2PO4/Na2HPO4/100 mM KCl, pH 7.0 buffer/50% TFE). A 10-fold dilution of an approximately 500 μM stock solution of the peptide analogs was loaded into a 0.1 cm quartz cell and its ellipticity scanned from 195 to 250 nm.

human red blood cells = assay: Hemolytic activity on human red blood cells
Description: For comparison, the inventors also determined the hemolytic activity after 18 hours at 37° C. Hemolysis can be determined with red blood cells (RBC) from various species including human red blood cells (hRBC).
as §1

[3] = isolates resistant to classical antibiotics

CC(=O)N[C@H](CCCCN)C(=O)N[C@H](CC(C)C)C(=O)N[C@H](CCCN)C(=O)N[C@H](CO)C(=O)N[C@H](CC(C)C)C(=O)N[C@H](CC(C)C)C(=O)N[C@H](CCCN)C(=O)N[C@@H](C(=O)N[C@H](CC(C)C)C(=O)N[C@H](CO)C(=O)N[C@H](CCCN)C(=O)N[C@H](C)C(=O)N[C@H](C)C(=O)N[C@H](C)C(=O)N[C@H](C)C(=O)N[C@H](C)C(=O)N[C@H](CC(C)C)C(=O)N[C@H](CCCN)C(=O)N[C@@H](C(=O)N[C@H](CC(C)C)C(=O)N[C@H](CC(C)C)C(=O)N[C@H](CCCN)C(=O)N[C@H](C)C(=O)N[C@H](CC(C)C)C(=O)N[C@H](CO)C(=O)N[C@H](CCCN)C(N)=O)[C@H](C)O)[C@H](C)O [D85(K13A/K16A)-(Lys^1-6Orn-1), Ac-KL(Orn)SLL(Orn)TLS(Orn)AAAAAL(Orn)TLL(Orn)ALS(Orn)-amide]
MIC 101887 ([1]; strain 101887 (lower line)): 3.0 µM (≈ 8 µg/mL)
MIC 961997 ([1]; strain 961997 (lower line)): 1.5 µM (≈ 4 µg/mL)
MIC 963618 ([1]; strain 963618 (lower line)): 1.5 µM (≈ 4 µg/mL)
MIC 964304 ([1]; strain 964304 (lower line)): 1.5 µM (≈ 4 µg/mL)
MIC 977751 ([1]; strain 977751 (lower line)): 6.0 µM (≈ 16 µg/mL)
MIC 981653 ([1]; strain 981653 (lower line)): 1.5 µM (≈ 4 µg/mL)
MIC 1002956 ([1]; strain 1002956 (lower line)): 1.5 µM (≈ 4 µg/mL)
MIC 1007660 ([1]; strain 1007660 (lower line)): 1.5 µM (≈ 4 µg/mL)
MIC 1010282 ([1]; strain 1010282 (lower line)): 1.5 µM (≈ 4 µg/mL)
MIC 1035166 ([1]; strain 1035166 (lower line)): 1.5 µM (≈ 4 µg/mL)
MIC No serum (A. baumannii strain 649): 1.5 µM (≈ 4 µg/mL)
MIC MB9941 ([2]; strain MB9941): 2.9 µM (≈ 7.74 µg/mL)
MIC MB9949 ([2]; strain MB9949): 2.9 µM (≈ 7.74 µg/mL)
MIC MB9951 ([2]; strain MB9951): 1.5 µM (≈ 4 µg/mL)
MIC MB9952 ([2]; strain MB9952): 1.5 µM (≈ 4 µg/mL)
MIC MB9953 ([2]; strain MB9953): 1.5 µM (≈ 4 µg/mL)
MIC MB9955 ([2]; strain MB9955): 1.5 µM (≈ 4 µg/mL)
MIC MB9963 ([2]; strain MB9963): 2.9 µM (≈ 7.74 µg/mL)

CC(=O)N[C@H](CCCCN)C(=O)N[C@H](CC(C)C)C(=O)N[C@@H](CCN)C(=O)N[C@H](CO)C(=O)N[C@H](CC(C)C)C(=O)N[C@H](CC(C)C)C(=O)N[C@@H](CCN)C(=O)N[C@@H](C(=O)N[C@H](CC(C)C)C(=O)N[C@H](CO)C(=O)N[C@@H](CCN)C(=O)N[C@H](C)C(=O)N[C@H](CCCCN)C(=O)N[C@H](C)C(=O)N[C@H](C)C(=O)N[C@H](CCCCN)C(=O)N[C@H](CC(C)C)C(=O)N[C@@H](CCN)C(=O)N[C@@H](C(=O)N[C@H](CC(C)C)C(=O)N[C@H](CC(C)C)C(=O)N[C@@H](CCN)C(=O)N[C@H](C)C(=O)N[C@H](CC(C)C)C(=O)N[C@H](CO)C(=O)N[C@@H](CCN)C(N)=O)[C@H](C)O)[C@H](C)O [D86(Lys^1-6Dab-1), Ac-KL(L-Dab)SLL(L-Dab)TLS(L-Dab)AKAAKL(L-Dab)TLL(L-Dab)ALS(L-Dab)-amide]
MIC 101887 [1, 3]: 0.7 µM (≈ 1.89 µg/mL)
MIC 961997 [1, 3]: 0.7 µM (≈ 1.89 µg/mL)
MIC 963618 [1, 3]: 0.7 µM (≈ 1.89 µg/mL)
MIC 964304 [1, 3]: 1.5 µM (≈ 4.05 µg/mL)
MIC 977751 [1, 3]: 0.7 µM (≈ 1.89 µg/mL)
MIC 981653 [1, 3]: 0.7 µM (≈ 1.89 µg/mL)
MIC 1002956 [1, 3]: 0.7 µM (≈ 1.89 µg/mL)
MIC 1007660 [1, 3]: 0.7 µM (≈ 1.89 µg/mL)
MIC 1010282 [1, 3]: 0.7 µM (≈ 1.89 µg/mL)
MIC 1035166 [1, 3]: 0.7 µM (≈ 1.89 µg/mL)
HC50 Fold Improvement (human red blood cells): >186
hemolytic activity against red blood cells from four blood donors (human red blood cells): very little hemolytic activity
HC50 (human red blood cells; red cells of human, 18 h): >742 µM
